Source: PubChem BioAssay (NCI)
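Assay format: 96-well plates, 48-hour exposure. GI50 is the concentration that inhibits growth by half. The concentration for full growth arrest is given as TGI.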

Legend:
Test in all cases: NCI-60 cell line screen, 48 h
[1] = test system: 786-0 renal
[2] = test system: A498 renal
[3] = test system: A549 NSCLC
[4] = test system: ACHN renal
[5] = test system: BT-549 breast
[6] = test system: CAKI-1 renal
[7] = test system: CCRF-CEM leukemia
[8] = test system: COLO 205 colon
[9] = test system: DU-145 prostate
[10] = test system: EKVX NSCLC
[11] = test system: HCC-2998 colon
[12] = test system: HCT-15 colon
[13] = test system: HL-60(TB) leukemia
[14] = test system: HOP-62 NSCLC
[15] = test system: HOP-92 NSCLC
[16] = test system: HS 578T breast
[17] = test system: HT29 colon
[18] = test system: IGROV1 ovarian
[19] = test system: K-562 leukemia
[20] = test system: KM12 colon
[21] = test system: LOX IMVI melanoma
[22] = test system: M14 melanoma
[23] = test system: MALME-3M melanoma
[24] = test system: MCF7 breast
[25] = test system: MDA-MB-231 breast
[26] = test system: MDA-MB-435
[27] = test system: MDA-MB-468 breast
[28] = test system: MOLT-4 leukemia
[29] = test system: NCI-H226 lung
[30] = test system: NCI-H23 lung
[31] = test system: NCI-H460 lung
[32] = test system: NCI-H522 lung
[33] = test system: OVCAR-3 ovarian
[34] = test system: OVCAR-4 ovarian
[35] = test system: OVCAR-5 ovarian
[36] = test system: OVCAR-8 ovarian
[37] = test system: PC-3 prostate
[38] = test system: RPMI-8226 leukemia
[39] = test system: RXF 393 renal
[40] = test system: SF-268 CNS
[41] = test system: SF-295 CNS
[42] = test system: SF-539 CNS
[43] = test system: SK-MEL-2 melanoma
[44] = test system: SK-MEL-28 melanoma
[45] = test system: SK-MEL-5 melanoma
[46] = test system: SK-OV-3 ovarian
[47] = test system: SN12C renal
[48] = test system: SNB-19 CNS
[49] = test system: SNB-75 CNS
[50] = test system: SR leukemia
[51] = test system: T-47D breast
[52] = test system: TK-10 renal
[53] = test system: U251 CNS
[54] = test system: UACC-257 melanoma
[55] = test system: UACC-62 melanoma
[56] = test system: UO-31 renal
[57] = test system: HCT-116 colon
[58] = test system: NCI/ADR-RES ovarian
[59] = test system: SW-620 colon

C=C1CCC2C3(C)COC(c4ccccc4F)OC3CCC2(C)C1C/C=C1/C(=O)OCC1O (configuration not stated)
GI50 [1]: 2.02 µM | TGI [1]: 3.69 µM | GI50 [2]: 20.1 µM | TGI [2]: 37.3 µM | GI50 [3]: 4.4 µM | TGI [3]: 94 µM | GI50 [4]: 1.85 µM | TGI [4]: 3.34 µM | GI50 [5]: 2.6 µM | TGI [5]: 5.76 µM | GI50 [6]: 3.84 µM | TGI [6]: 13.3 µM | GI50 [7]: 1.81 µM | TGI [7]: 6.53 µM | GI50 [8]: 2.96 µM | TGI [8]: 8.38 µM | GI50 [9]: 4.09 µM | TGI [9]: 15.1 µM | GI50 [10]: 15.4 µM | TGI [10]: 30.3 µM | GI50 [11]: 5.12 µM | TGI [11]: 17.8 µM | GI50 [12]: 1.85 µM | TGI [12]: 4.52 µM | GI50 [13]: 1.65 µM | TGI [13]: 5.48 µM | GI50 [14]: 15.8 µM | TGI [14]: 35.1 µM | GI50 [15]: 3.65 µM | TGI [15]: 14.6 µM | GI50 [16]: 4.4 µM | TGI [16]: 47.9 µM | GI50 [17]: 1.9 µM | TGI [17]: 3.85 µM | GI50 [18]: 5.66 µM | TGI [18]: 19.7 µM | GI50 [19]: 3.04 µM | TGI [19]: > 100 µM | GI50 [20]: 2.99 µM | TGI [20]: 10.3 µM | GI50 [21]: 1.57 µM | TGI [21]: 2.92 µM | GI50 [22]: 4.24 µM | TGI [22]: 19.2 µM | GI50 [23]: 7.35 µM | TGI [23]: 21.8 µM | GI50 [24]: 1.83 µM | TGI [24]: 5.45 µM | GI50 [25]: 2.41 µM | TGI [25]: 5.41 µM | GI50 [26]: 2.25 µM | TGI [26]: 5.79 µM | GI50 [27]: 1.62 µM | TGI [27]: 3.63 µM | GI50 [28]: 3.31 µM | TGI [28]: 17.2 µM | GI50 [29]: 1.67 µM | TGI [29]: 3.3 µM | GI50 [30]: 10.8 µM | TGI [30]: 26 µM | GI50 [31]: 3.36 µM | TGI [31]: > 100 µM | GI50 [32]: 1.57 µM | TGI [32]: 3.12 µM | GI50 [33]: 1.8 µM | TGI [33]: 3.7 µM | GI50 [34]: 2.45 µM | TGI [34]: 7.65 µM | GI50 [35]: 2.47 µM | TGI [35]: 5.78 µM | GI50 [36]: 1.98 µM | TGI [36]: 5.53 µM | GI50 [37]: 3.45 µM | TGI [37]: 14.6 µM | GI50 [38]: 2.6 µM | TGI [38]: 7.35 µM | GI50 [39]: 3 µM | TGI [39]: 12.2 µM | GI50 [40]: 3.85 µM | TGI [40]: 16.4 µM | GI50 [41]: 2.13 µM | TGI [41]: 5.24 µM | GI50 [42]: 1.94 µM | TGI [42]: 3.52 µM | GI50 [43]: 2.67 µM | TGI [43]: 7.79 µM | GI50 [44]: 2.92 µM | TGI [44]: 7.63 µM | GI50 [45]: 5.67 µM | TGI [45]: 18.2 µM | GI50 [46]: 18.6 µM | TGI [46]: 35.4 µM | GI50 [47]: 1.99 µM | TGI [47]: 4.49 µM | GI50 [48]: 11.5 µM | TGI [48]: 26.8 µM | GI50 [49]: 2.82 µM | TGI [49]: 12.8 µM | GI50 [50]: 2.5 µM | TGI [50]: 19.9 µM | GI50 [51]: 3.76 µM | TGI [51]: 16.9 µM | GI50 [52]: 8.18 µM | TGI [52]: 22.2 µM | GI50 [53]: 1.96 µM | TGI [53]: 3.97 µM | GI50 [54]: 2.36 µM | TGI [54]: 13.2 µM | GI50 [55]: 3.17 µM | TGI [55]: 12.1 µM | GI50 [56]: 1.97 µM | TGI [56]: 5.54 µM

COc1ccc(C(=O)Nc2ccc(-c3ccc4c(c3)NC(=O)/C4=C\c3ccc[nH]3)cc2)cc1
GI50 [1]: 21.8 µM | TGI [1]: 71.9 µM | GI50 [2]: > 100 µM | TGI [2]: > 100 µM | GI50 [3]: 15.2 µM | TGI [3]: > 100 µM | GI50 [4]: 48.2 µM | TGI [4]: > 100 µM | GI50 [5]: 33.4 µM | TGI [5]: > 100 µM | GI50 [6]: > 100 µM | TGI [6]: > 100 µM | GI50 [7]: > 100 µM | TGI [7]: > 100 µM | GI50 [8]: 3.36 µM | TGI [8]: 12.1 µM | GI50 [9]: 8.3 µM | TGI [9]: > 100 µM | GI50 [10]: 2.46 µM | TGI [10]: > 100 µM | GI50 [11]: 9.38 µM | TGI [11]: > 100 µM | GI50 [57]: 15.7 µM | TGI [57]: > 100 µM | GI50 [12]: 23 µM | TGI [12]: > 100 µM | GI50 [13]: 32.4 µM | TGI [13]: > 100 µM | GI50 [14]: 3.76 µM | TGI [14]: 13.5 µM | GI50 [15]: 42.8 µM | TGI [15]: > 100 µM | GI50 [16]: 5.82 µM | TGI [16]: 49.2 µM | GI50 [17]: 4.23 µM | TGI [17]: 19.8 µM | GI50 [18]: 37.6 µM | TGI [18]: > 100 µM | GI50 [19]: 25.2 µM | TGI [19]: > 100 µM | GI50 [20]: 53.7 µM | TGI [20]: > 100 µM | GI50 [21]: 7.29 µM | TGI [21]: > 100 µM | GI50 [22]: 7.15 µM | TGI [22]: > 100 µM | GI50 [23]: 13.4 µM | TGI [23]: > 100 µM | GI50 [24]: 0.372 µM | TGI [24]: > 100 µM | GI50 [26]: > 100 µM | TGI [26]: > 100 µM | GI50 [27]: 0.243 µM | TGI [27]: 1.71 µM | GI50 [28]: 19.4 µM | TGI [28]: > 100 µM | GI50 [29]: 4.08 µM | TGI [29]: > 100 µM | GI50 [30]: 12.4 µM | TGI [30]: > 100 µM | GI50 [31]: 12.7 µM | TGI [31]: > 100 µM | GI50 [32]: 17 µM | TGI [32]: 91.3 µM | GI50 [58]: 3.84 µM | TGI [58]: 16.3 µM | GI50 [33]: 47.1 µM | TGI [33]: > 100 µM | GI50 [34]: 3.55 µM | TGI [34]: 23.2 µM | GI50 [35]: 30.8 µM | TGI [35]: > 100 µM | GI50 [36]: 2.95 µM | TGI [36]: 10.3 µM | GI50 [37]: 27.7 µM | TGI [37]: > 100 µM | GI50 [38]: 38.4 µM | TGI [38]: > 100 µM | GI50 [39]: 8.74 µM | TGI [39]: 50.8 µM | GI50 [40]: 28.7 µM | TGI [40]: > 100 µM | GI50 [41]: 13.9 µM | TGI [41]: 62.4 µM | GI50 [42]: > 100 µM | TGI [42]: > 100 µM | GI50 [44]: 79.6 µM | TGI [44]: > 100 µM | GI50 [45]: > 100 µM | TGI [45]: > 100 µM | GI50 [46]: > 100 µM | TGI [46]: > 100 µM | GI50 [47]: 68.9 µM | TGI [47]: > 100 µM | GI50 [48]: 30.9 µM | TGI [48]: > 100 µM | GI50 [50]: 13.4 µM | TGI [50]: > 100 µM | GI50 [59]: 8.39 µM | TGI [59]: > 100 µM | GI50 [51]: 3.17 µM | TGI [51]: 41.2 µM | GI50 [52]: 19 µM | TGI [52]: > 100 µM | GI50 [53]: 5.29 µM | TGI [53]: 18.9 µM | GI50 [54]: 9.07 µM | TGI [54]: > 100 µM | GI50 [55]: 20.5 µM | TGI [55]: > 100 µM
